± gives the expanded uncertainty stated by the source.
Key:
[1] = Crystal; for vapor or sublimation pressure: Transpiration method; for Normal melting temperature: DTA
[2] = Molar enthalpy of transition or fusion; conditions: Crystal; DSC

| SMILES | vapor or sublimation pressure ([1]; 376.15 K) | vapor or sublimation pressure ([1]; 377.15 K) | vapor or sublimation pressure ([1]; 378.15 K) | vapor or sublimation pressure ([1]; 381.15 K) | vapor or sublimation pressure ([1]; 382.15 K) | vapor or sublimation pressure ([1]; 384.15 K) | vapor or sublimation pressure ([1]; 386.15 K) | vapor or sublimation pressure ([1]; 388.15 K) | vapor or sublimation pressure ([1]; 390.15 K) | Normal melting temperature [1] | Molar enthalpy of transition or fusion [2] | vapor or sublimation pressure ([1]; 353.15 K) | vapor or sublimation pressure ([1]; 355.15 K) | vapor or sublimation pressure ([1]; 357.15 K) | vapor or sublimation pressure ([1]; 359.15 K) | vapor or sublimation pressure ([1]; 361.15 K) | vapor or sublimation pressure ([1]; 362.15 K) | vapor or sublimation pressure ([1]; 368.15 K) | vapor or sublimation pressure ([1]; 371.15 K) | vapor or sublimation pressure ([1]; 374.15 K) | further results |
| --- | --- | --- | --- | --- | --- | --- | --- | --- | --- | --- | --- | --- | --- | --- | --- | --- | --- | --- | --- | --- | --- |
| Cc1ccc(N=C2SCC3CCCN2C3)cc1Cl (centres undefined) | 3.1e-05 ± 3.3e-06 kPa | 3.39e-05 ± 3.6e-06 kPa | 3.79e-05 ± 4e-06 kPa | 5.21e-05 ± 5.6e-06 kPa | 5.74e-05 ± 6.1e-06 kPa | 7.6e-05 ± 8.1e-06 kPa | 9.31e-05 ± 9.9e-06 kPa | 0.0001239 ± 1.3e-05 kPa | 0.0001553 ± 1.7e-05 kPa | 133.5 ± 0.5 °C | 22.7 ± 1.1 kJ/mol |  |  |  |  |  |  |  |  |  | vapor or sublimation pressure ([1]; 379.15 K): 4.05e-05 ± 4.3e-06 kPa; vapor or sublimation pressure ([1]; 383.15 K): 6.78e-05 ± 7.2e-06 kPa; vapor or sublimation pressure ([1]; 392.15 K): 0.0002006 ± 2.1e-05 kPa; vapor or sublimation pressure ([1]; 394.15 K): 0.0002521 ± 2.7e-05 kPa; vapor or sublimation pressure ([1]; 396.15 K): 0.0003109 ± 3.3e-05 kPa |
| Clc1ccc(N=C2SCC3CCCN2C3)cc1Cl (centres undefined) |  |  |  |  |  |  |  |  |  | 97.8 ± 0.5 °C | 23.5 ± 1.1 kJ/mol | 1.25e-05 ± 1.4e-06 kPa | 1.82e-05 ± 2e-06 kPa | 2.27e-05 ± 2.4e-06 kPa | 2.58e-05 ± 2.8e-06 kPa | 3.49e-05 ± 3.7e-06 kPa | 4e-05 ± 4.3e-06 kPa |  |  |  | vapor or sublimation pressure ([1]; 352.15 K): 1.15e-05 ± 1.2e-06 kPa; vapor or sublimation pressure ([1]; 354.15 K): 1.59e-05 ± 1.7e-06 kPa; vapor or sublimation pressure ([1]; 356.15 K): 2.26e-05 ± 2.4e-06 kPa; vapor or sublimation pressure ([1]; 358.15 K): 2.56e-05 ± 2.7e-06 kPa; vapor or sublimation pressure ([1]; 360.15 K): 2.91e-05 ± 3.1e-06 kPa; vapor or sublimation pressure ([1]; 363.15 K): 4.4e-05 ± 4.7e-06 kPa |
| Clc1ccc(N=C2SCC3CCCN2C3)cc1 (centres undefined) [N-(4-chlorophenyl)-3-thia-1-azabicyclo[3.3.1]nonan-2-imine] | 0.0001659 ± 1.8e-05 kPa |  | 0.0002065 ± 2.2e-05 kPa |  | 0.0003128 ± 3.3e-05 kPa | 0.0003887 ± 4.1e-05 kPa | 0.0004737 ± 5e-05 kPa | 0.0005748 ± 6.1e-05 kPa | 0.0007333 ± 7.8e-05 kPa | 138.7 ± 0.5 °C | 11.8 ± 1 kJ/mol |  |  |  |  |  |  | 6.26e-05 ± 6.7e-06 kPa | 8.91e-05 ± 9.5e-06 kPa | 0.0001327 ± 1.4e-05 kPa | vapor or sublimation pressure ([1]; 369.15 K): 7.04e-05 ± 7.5e-06 kPa; vapor or sublimation pressure ([1]; 373.15 K): 0.0001094 ± 1.2e-05 kPa; vapor or sublimation pressure ([1]; 375.15 K): 0.000149 ± 1.6e-05 kPa; vapor or sublimation pressure ([1]; 380.15 K): 0.0002459 ± 2.6e-05 kPa; vapor or sublimation pressure ([1]; 391.15 K): 0.0008441 ± 9e-05 kPa |
| CCc1ccc(N=C2SCC3CCCN2C3)cc1 (centres undefined) [N-(4-ethylphenyl)-3-thia-1-azabicyclo[3.3.1]nonan-2-imine] | 3.03e-05 ± 1.5e-05 kPa | 5.41e-05 ± 5.8e-06 kPa |  | 7.59e-05 ± 8.1e-06 kPa | 8.41e-05 ± 9e-06 kPa | 8.43e-05 ± 9e-06 kPa | 0.0001059 ± 1.1e-05 kPa |  |  | 121.5 ± 0.5 °C | 16.4 ± 1.1 kJ/mol |  |  |  | 1.09e-05 ± 1.2e-06 kPa |  | 1.35e-05 ± 1.5e-06 kPa | 2.54e-05 ± 2.7e-06 kPa | 2.86e-05 ± 3.1e-06 kPa | 3.88e-05 ± 4.1e-06 kPa | vapor or sublimation pressure ([1]; 364.15 K): 1.75e-05 ± 1.9e-06 kPa; vapor or sublimation pressure ([1]; 366.15 K): 1.98e-05 ± 2.1e-06 kPa; vapor or sublimation pressure ([1]; 380.15 K): 6.76e-05 ± 7.2e-06 kPa; vapor or sublimation pressure ([1]; 389.15 K): 0.0001278 ± 1.4e-05 kPa |
| Cc1cccc(N=C2SCC3CCCN2C3)c1 (centres undefined) [N-(m-tolyl)-3-thia-1-azabicyclo[3.3.1]nonan-2-imine] | 0.0008044 ± 8.5e-05 kPa |  |  |  |  |  |  |  |  | 125.4 ± 0.5 °C | 26.5 ± 1.1 kJ/mol | 5.65e-05 ± 6e-06 kPa | 7.21e-05 ± 7.7e-06 kPa | 9.52e-05 ± 1e-05 kPa | 0.0001112 ± 1.2e-05 kPa | 0.0001522 ± 1.6e-05 kPa | 0.0001678 ± 1.8e-05 kPa | 0.0003248 ± 3.4e-05 kPa |  | 0.0006715 ± 7.1e-05 kPa | vapor or sublimation pressure ([1]; 364.15 K): 0.0002107 ± 2.2e-05 kPa; vapor or sublimation pressure ([1]; 366.15 K): 0.0002637 ± 2.8e-05 kPa; vapor or sublimation pressure ([1]; 370.15 K): 0.0004227 ± 4.5e-05 kPa; vapor or sublimation pressure ([1]; 372.15 K): 0.0005258 ± 5.6e-05 kPa |
